Results reported in ChEMBL document CHEMBL5550125, “Molecular basis of N-glycan recognition by pradimicin a and its potential as a SARS-CoV-2 entry inhibitor” (Bioorg Med Chem, 2024).
Calls of active or inactive are those of the source. No cut-off for these calls is given here.

How the values were obtained:
[1] = Induction of Pradimicin-FA1 aggregation assessed as concentration required to induce 50% aggregation incubated for 15 mins and further incubated for 30 mins at room temperature by RP-HPLC analysis
[2] = Binding affinity to Pradimicin A assessed as suppression of pradimicin A induced growth inhibition of Candida rugosa AJ14513 by measuring minimum antagonistic concentration measured after 48 hrs by visual analysis
[3] = tested on: SARS-CoV-2; assay: Antiviral activity against SARS-CoV-2 JPN/NGS/SC-1/2020 infected in human Calu-3 cells assessed as inhibition of viral infection pretreated with cells for 1 hr followed by viral infection and measured after 3 days by immunofluorescence analysis; assay type: functional, organism-based; conditions: Severe acute respiratory syndrome coronavirus 2, JPN/NGS/SC-1/2020, Calu-3
[4] = tested on: SARS-CoV-2; assay: Antiviral activity against SARS-CoV-2 JPN/NGS/SC-1/2020 infected in human Calu-3 cells assessed as inhibition of viral infection at 6.25 uM pretreated with cells for 1 hr in presence of (2S,3S,4S,5R,6R)-4-(((2S,3R,4S,5S,6R)-3,4,5-trihydroxy-6-(hydroxymethyl)tetrahydro-2H-pyran-2-yl)oxy)-6-((((2S,3S,4S,5S,6R)-3,4,5-trihydroxy-6-(hydroxymethyl)tetrahydro-2H-pyran-2-yl)oxy)methyl)tetrahydro-2H-pyran-2,3,5-triol followed by viral infection and measured after 3 days by immunofluorescence analysis; assay type: functional, organism-based; conditions: Severe acute respiratory syndrome coronavirus 2, time 73.0 hrs
[5] = tested on: Calu-3; assay: Cytotoxicity against human Calu-3 cells infected with SARS-CoV-2 JPN/NGS/SC-1/2020 assessed as reduction in cell viability at 0.3 to 100 uM pretreated with cells for 1 hr followed by viral infection and measured after 3 days; assay type: toxicity, cell-based; conditions: calu-3, 73 h, dose 0.3-100 µM
[6] = tested on: SARS-CoV-2; assay: Antiviral activity against SARS-CoV-2 JPN/NGS/SC-1/2020 infected in human Calu-3 cells assessed as inhibition of viral infection at 6.25 uM pretreated with cells for 1 hr followed by viral infection and measured after 3 days by immunofluorescence analysis relative to control; assay type: functional, Severe acute respiratory syndrome coronavirus 2; design: scale not given: the % may be the effect or the level left; conditions: time 73 hrs
[7] = tested on: Diutina rugosa; assay: Antifungal activity against Candida rugosa AJ14513 assessed as inhibition of fungal growth at 32 ug/ml measured after 48 hrs by visual analysis relative to control; assay type: functional
[8] = Binding affinity to Pradimicin A assessed as pradimicin A/Ca2+/compound ternary complex formation by measuring molar ratio at 50 umol incubated at 60 degreeC for 15 mins and room temperature for 1 hr in presence of CaCl2 and further incubated at 4 degreeC for 1 hr by coprecipitation based 1H-NMR analysis; conditions: dose 50.0 µmol, time 2.25 hrs

## CO[C@H]1O[C@H](CO)[C@@H](O)[C@H](O)[C@@H]1O[C@@H]1O[C@H](CO)[C@@H](OC)[C@H](O)[C@@H]1NC(C)=O
[1]
  AC50: > 10 mM
[2]
  MAC: > 64 mM

## CO[C@@H]1O[C@H](CO[C@]2(C(=O)O)C[C@H](O)[C@@H](NC(C)=O)[C@H]([C@@H](O)[C@H](O)CO)O2)[C@H](O)[C@H](O)[C@H]1O
[1]
  AC50: > 10 mM
[2]
  MAC: > 64 mM

## CN[C@@H]1[C@H](O[C@@H]2OC[C@@H](O)[C@H](O)[C@H]2O)[C@@H](O)[C@H](O[C@H]2c3cc(C)c(C(=O)N[C@H](C)C(=O)O)c(O)c3-c3c(cc4c(c3O)C(=O)c3cc(OC)cc(O)c3C4=O)[C@@H]2O)O[C@@H]1C [PRADIMICIN A]
[3]
  IC50: 0.0012 mM
[4]
  Activity: inactive
[5]
  Activity: Non-Toxic
[6]
  Activity: ~100%
[7]
  inhibition at 32 µg/mL: 100%

## CO[C@H]1O[C@H](CO)[C@@H](O[C@@H]2O[C@H](CO)[C@H](OC)[C@H](O)[C@H]2NC(C)=O)[C@H](O)[C@@H]1NC(C)=O
[1]
  AC50: > 10 mM
[2]
  MAC: > 64 mM

## CO[C@H]1O[C@H](CO)[C@@H](O[C@@H]2O[C@H](CO)[C@H](O)[C@H](O)[C@H]2O)[C@H](O)[C@@H]1NC(C)=O
[1]
  AC50: > 10 mM
[2]
  MAC: > 64 mM

## CO[C@H]1O[C@H](CO)[C@@H](O)[C@H](O)[C@@H]1O[C@@H]1O[C@H](CO)[C@@H](O)[C@H](O)[C@@H]1NC(C)=O
[1]
  AC50: > 10 mM
[2]
  MAC: > 64 mM

## CO[C@H]1O[C@H](CO[C@H]2O[C@H](CO)[C@@H](O)[C@H](O)[C@H]2O)[C@@H](O)[C@H](O[C@@H]2O[C@H](CO)[C@@H](O)[C@H](O)[C@H]2O)[C@@H]1O
[1]
  AC50: > 10 mM
[2]
  MAC: 16 mM

## OC[C@H]1O[C@H](OC[C@H]2O[C@H](O)[C@@H](O)[C@@H](O[C@@H]3O[C@H](CO)[C@@H](O)[C@H](O)[C@H]3O)[C@@H]2O)[C@@H](O)[C@@H](O)[C@@H]1O
[8]
  Ratio: 0.52
[1]
  AC50: 0.06 mM
[2]
  MAC: 1 mM

## CO[C@H]1O[C@H](CO)[C@@H](O)[C@H](O)[C@H]1O
[8]
  Ratio: 0.05

## CO[C@H]1O[C@H](CO[C@H]2O[C@H](CO)[C@@H](O)[C@H](O)[C@@H]2OC)[C@@H](O)[C@H](O[C@@H]2O[C@H](CO)[C@@H](O)[C@H](O)[C@H]2OC)[C@@H]1O
[1]
  AC50: > 10 mM
[2]
  MAC: > 64 mM

## CO[C@H]1O[C@H](CO)[C@@H](O)[C@H](O)[C@@H]1O[C@H]1O[C@H](CO)[C@@H](O)[C@H](O)[C@@H]1O
[1]
  AC50: > 10 mM
[2]
  MAC: 16 mM

## CO[C@H]1O[C@H](CO[C@H]2O[C@H](CO)[C@@H](O)[C@H](O)[C@@H]2O)[C@@H](O)[C@H](O[C@@H]2O[C@H](CO)[C@@H](O)[C@H](O)[C@H]2O)[C@@H]1O
[1]
  AC50: > 10 mM
[2]
  MAC: 16 mM

## CO[C@H]1O[C@H](CO)[C@@H](O)[C@H](O)[C@@H]1O
[8]
  Ratio: 0.96
[1]
  AC50: 5 mM
[2]
  MAC: 16 mM

## CO[C@H]1O[C@H](CO[C@H]2O[C@H](CO)[C@@H](O)[C@H](O)[C@@H]2O[C@H]2O[C@H](CO)[C@@H](O)[C@H](O)[C@@H]2O)[C@@H](O)[C@H](O[C@H]2O[C@H](CO)[C@H](O)[C@@H](O)[C@@H]2O[C@@H]2O[C@H](CO)[C@@H](O)[C@H](O)[C@H]2O)[C@@H]1O
[1]
  AC50: 0.07 mM
[2]
  MAC: 1 mM
